Consider 94 compounds from PubChem BioAssay AID463203 (Broad Institute, 2010).

Structures are written as SMILES. Active and inactive are the calls of the source.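 The calls were made as follows: active = more than half of replicate measurements showing over 20% loss of kinase signal relative to plate controls; inconclusive = some but at most half of replicates over 20% loss; inactive = no replicate over 20% signal loss.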

This test has as its target Glycogen synthase kinase-3 alpha (Homo sapiens) (UniProt P49840). As to the kind of experiment: concentration-response blocking of human GSK3A – biochemical, luminescence, cell-free homogeneous, retest, dose response (AID 463203). The settings on record: GSK-3 alpha enzyme, ADP-Glo luminescence, 60 min. Background: ADP-Glo turns the ADP formed in a reaction into a luminescent signal.

Chain of Glycogen synthase kinase-3 alpha (Homo sapiens) (P49840 whole entry, looked up): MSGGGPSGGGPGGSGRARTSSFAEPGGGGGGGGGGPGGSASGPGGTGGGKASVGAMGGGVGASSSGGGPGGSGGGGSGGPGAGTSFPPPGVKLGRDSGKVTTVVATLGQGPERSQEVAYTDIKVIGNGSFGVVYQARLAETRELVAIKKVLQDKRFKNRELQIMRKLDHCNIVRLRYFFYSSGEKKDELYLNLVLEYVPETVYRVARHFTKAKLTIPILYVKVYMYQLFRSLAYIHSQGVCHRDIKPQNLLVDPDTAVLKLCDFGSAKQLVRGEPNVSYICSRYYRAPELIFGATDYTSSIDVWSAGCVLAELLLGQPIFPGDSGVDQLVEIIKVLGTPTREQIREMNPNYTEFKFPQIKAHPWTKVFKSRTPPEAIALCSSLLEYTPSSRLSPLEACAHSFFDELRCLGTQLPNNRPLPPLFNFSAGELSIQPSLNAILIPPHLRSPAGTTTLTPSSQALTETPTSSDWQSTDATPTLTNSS

As a reminder, the AC50 is the concentration giving half of the maximal activity seen. With `COc1ccc(Nc2nc(N)nc(COc3ccc(OC)cc3)n2)cc1`, the AC50 is > 30 µM (inactive).

For `S=C(Nc1ccc2c(c1)OCCO2)Nc1ccccc1Cl`, the AC50 was > 30 µM (inactive).

Regarding `COc1ccc(OCC(=O)NCCCn2ccnc2)cc1`, the AC50 is > 30 µM (inactive).

Turning to `Cc1cc(C(C#N)c2ccccc2F)n2ncnc2n1` (centres undefined), the half-maximal activity concentration (AC50) is 1.87 µM.

As to `CCCNC(=O)OCCC12CC3CC(CC(C3)C1)C2`, the AC50 was > 30 µM (inactive).

For the compound `COc1ccc2nc(NC(=O)C3CCCN3S(=O)(=O)c3ccc(C)cc3)sc2c1` (centres undefined), the AC50 was > 30 µM (inactive).

As for `O=C1NC(=O)/C(=C\c2ccc(OCc3cccc(C(=O)O)c3)c(Cl)c2)N1`, the half-maximal activity concentration (AC50) is 4.85 µM.

In the case of `O=c1cc(-c2ccc(O)c(O)c2)oc2c1ccc1ccccc12`, the AC50 is 5.66 µM.

Regarding `O=C(CSc1ccc2nnc(-c3ccccn3)n2n1)N1CCOCC1`, the AC50 is > 30 µM (inactive).

Take `CCSc1nnc2ccc(-c3cccs3)nn12`: the AC50 is > 30 µM (inactive).

Consider `Oc1ccc(/C=N/NP(=S)(c2ccccc2)c2ccccc2)cc1O`, for which the AC50 was > 30 µM (inactive).

For the compound `O=C(COC(=O)c1cc([N+](=O)[O-])ccc1N1CCOCC1)Nc1ccc(Cl)cn1`, the half-maximal activity concentration (AC50) was 4.79 µM.

As for `Cc1cc(OC(=O)c2c(C)cc(O)cc2O)cc(O)c1C(=O)O`, the AC50 was 27.8 µM.

In the case of `O=C(Nc1ccc(C(=O)NC2CCCCC2)cc1)c1cccnc1`, the AC50 is > 30 µM (inactive).

Turning to `Cc1nc(SCC(=O)NCC2CCCO2)c2c(C)c(C)sc2n1` (centres undefined), the AC50 was > 30 µM (inactive).

On to `COc1cccc(/C=C2\Oc3cc(OCC(=O)N4CCC[C@H]4C(=O)O)ccc3C2=O)c1`, for which the AC50 was > 30 µM (inactive).

As to `CCOC1(OCC)N=C(N)C2(C#N)C(c3cccc(C)c3)C12C#N` (centres undefined), the AC50 is > 30 µM (inactive).

Turning to `COc1ccc2[nH]c(C)c(CN3CCCCC3)c(=O)c2c1`, the AC50 was > 30 µM (inactive).

As for `Cc1cc(=O)[nH]c2ccccc12`, the AC50 was > 30 µM (inactive).

Take `COc1ccc(NC(=O)/C(C#N)=C\C=C\c2ccco2)cc1`: the AC50 was > 30 µM (inactive).

Consider `Cc1ccc(-n2nnnc2SCc2nnc(-c3ccccc3Br)o2)cc1`, for which the AC50 is > 30 µM (inactive).

Turning to `O=C1/C(=C/c2ccc(Br)cc2)Oc2cc(O)ccc21`, the AC50 is > 30 µM (inactive).

`COc1ccc(OCc2nc(N)nc(Nc3cccc(C)c3C)n2)cc1`: the AC50 was > 30 µM (inactive).

With `CC(C)NC(=O)NC(=O)CSc1nncn1C`, the AC50 is > 30 µM (inactive).

`CCOc1ccc2ncc(S(=O)(=O)c3ccccc3)c(N3CCN(c4ccc(OC)cc4)CC3)c2c1`: the AC50 is > 30 µM (inactive).

In the case of `CCn1c(SCC(=O)Nc2nc3ccc(OC)cc3s2)nnc1-c1ccoc1C`, the AC50 was 5.81 µM.

For the compound `COc1c(-c2ccc(O)cc2)oc2cc(O)cc(O)c2c1=O`, the AC50 was 6.97 µM.

Turning to `CC1CN(c2nc(Nc3ccccc3F)nc(N)c2[N+](=O)[O-])CC(C)O1` (centres undefined), the AC50 was 9.19 µM.

`Nc1ncc([N+](=O)[O-])s1`: the AC50 is > 30 µM (inactive).

Turning to `CCOC(=O)c1nnn(-c2nonc2N)c1COc1cc(C)c(Cl)c(C)c1`, the AC50 was 6.9 µM.

Consider `Cc1ccc(C(=O)N/N=c2\oc3ccccc3cc2C(N)=O)cc1`, for which the AC50 is > 30 µM (inactive).

With `CN(C(=O)Oc1ccc([N+](=O)[O-])cc1)c1ccccc1`, the AC50 was > 30 µM (inactive).

As to `Cc1c(C(=O)N/N=C/c2cccnc2)nnn1-c1nonc1N`, the AC50 was > 30 µM (inactive).

For `Cc1ccc(N=CC2=C(O)CC(C)(C)CC2=O)nc1`, the AC50 is > 30 µM (inactive).

On to `O=C1NC(=Nc2ccccc2Cl)S/C1=C\c1cccc([N+](=O)[O-])c1`, for which the AC50 is > 30 µM (inactive).

In the case of `O=C(Nc1ccccc1N1CCOCC1)c1cnccn1`, the half-maximal activity concentration (AC50) was 28.6 µM.

Take `N#Cc1c(-c2ccncc2)c2c([nH]c1=O)-c1ccccc1OC2`: the AC50 is > 30 µM (inactive).

Regarding `Cc1ccc(NC(=O)C2CCN(c3ncnc4sc(C)c(C)c34)CC2)cc1S(=O)(=O)N(C)C`, the AC50 was > 30 µM (inactive).

As to `S=C(NCCc1ccccc1)Nc1cccc2cnccc12`, the AC50 is > 30 µM (inactive).

Consider `CCOC(=O)c1[nH]c2c(c1-c1ccccc1)C(=O)CC(c1ccc(OCC)cc1)C2` (centres undefined), for which the AC50 is > 30 µM (inactive).

As for `Cc1ccsc1C1C2=C(CC(C)(C)CC2=O)Nc2ncnn21` (centres undefined), the half-maximal activity concentration (AC50) was 11.3 µM.

As for `Clc1ccccc1C1=Nn2c(nnc2-c2ccncc2)SC1`, the AC50 is 2.35 µM.

`Cc1noc(C)c1CSc1nnc(-c2ccccc2)o1`: the AC50 is > 30 µM (inactive).

In the case of `O=C1c2ccccc2C(=O)c2c(Nc3ccc(CCO)cc3)ccc(O)c21`, the AC50 is > 30 µM (inactive).

As to `Cc1nc2c(C)cccn2c1/C(O)=C1\C(=O)C(=O)N(CCN2CCOCC2)C1c1cccs1` (centres undefined), the AC50 is > 30 µM (inactive).

For the compound `O=c1cc(-c2ccncc2)oc2c1ccc1ccccc12`, the AC50 is 0.312 µM.

Regarding `CN(C)c1ccc(/C=N/NC(=O)c2ccc(Cl)cc2)cc1`, the AC50 is > 30 µM (inactive).

Turning to `CN(c1ccccc1)c1nc(N)c([N+](=O)[O-])c(Nc2ccccc2F)n1`, the AC50 was > 30 µM (inactive).

Consider `O=c1[nH]c(=O)n(C2CCCCCC2)c(O)c1C=NCCCN1CCOCC1`, for which the half-maximal activity concentration (AC50) was 14.4 µM.

On to `CCOc1ccc(/C=C/C2=Cc3c(sc(NC(=O)CSc4n[nH]c(N)n4)c3C#N)C(C)(C)C2)cc1`, for which the AC50 is > 30 µM (inactive).

As to `CC1(C)CC(=O)C(C(C2=C(O)CC(C)(C)CC2=O)c2cccc(O)c2)C(=O)C1` (centres undefined), the AC50 was > 30 µM (inactive).

With `Cc1ccc(NC(=O)CSc2nnc(-c3ccncc3)o2)cc1`, the AC50 was > 30 µM (inactive).

Take `COc1cc2c(C#N)c(N3CCCCC3)nc(N)c2c(N)n1`: the AC50 is 13.4 µM.

With `c1ccc2[nH]c(C3CC3)nc2c1`, the AC50 was > 30 µM (inactive).

As to `COc1ccccc1Nc1nc(Cl)c(C=O)s1`, the AC50 is > 30 µM (inactive).

`COCCCNC(=O)C(=O)NC1CCCCC1C` (centres undefined): the AC50 is > 30 µM (inactive).

Turning to `c1cncc(-c2nc(NCC3COc4ccccc4O3)c3ccccc3n2)c1` (centres undefined), the AC50 is 22.9 µM.

As to `O=C(NCc1ccc(C(=O)N2CCC3(CC2)OCCO3)cc1)c1cccc(Br)c1`, the AC50 is > 30 µM (inactive).

On to `NC(=O)c1sc2nc3c(c(-c4ccco4)c2c1N)CCCC3`, for which the half-maximal activity concentration (AC50) was 13.6 µM.

With `O=C(O)COc1ccccc1/C=N/NC(=O)CSc1nnc(SCc2ccccc2)s1`, the AC50 was > 30 µM (inactive).

Regarding `CC1(C)CC(=O)C=C(c2cccc(O)c2)C1`, the AC50 is > 30 µM (inactive).

As to `CC(=O)c1cccc(NC(=O)c2cc(-n3cnnc3)ccc2Cl)c1`, the AC50 is > 30 µM (inactive).

In the case of `CC(=O)Nc1c(C)ccc2nsnc12`, the AC50 is > 30 µM (inactive).

As for `O=Cc1cn(-c2ccccc2)nc1-c1ccc2c(c1)OCCO2`, the AC50 was > 30 µM (inactive).

On to `C[C@@H](NC(=O)c1[nH]cnc1C(=O)Nc1ccon1)c1ccccc1`, for which the AC50 is 11.6 µM.

For `CCCCC(NS(=O)(=O)c1ccc(OC)cc1)C(=O)O` (centres undefined), the AC50 was > 30 µM (inactive).

On to `CCc1ccc(C2CC(c3ccc(Cl)cc3)n3nc(N)nc3N2)cc1` (centres undefined), for which the AC50 is > 30 µM (inactive).

With `O=C(O)CCCNc1ccc([N+](=O)[O-])c(NCCCC(=O)O)n1`, the AC50 was > 30 µM (inactive).

Turning to `Cc1ccc(/C=N/NC(=O)c2nnn(-c3nonc3N)c2CN(C)C)s1`, the AC50 is > 30 µM (inactive).

Turning to `COCCNc1nc(C)cc(-c2cc(C(=O)NC3CCCC3)on2)n1`, the AC50 is > 30 µM (inactive).

In the case of `Cc1ccc(N(CC(O)CN2CCCCC2)S(=O)(=O)c2ccc(C)cc2)cc1` (centres undefined), the AC50 was > 30 µM (inactive).

Turning to `C=CCc1cccc(/C=N/n2c(C)nnc2C)c1O`, the AC50 was > 30 µM (inactive).

In the case of `O=C(O)COc1ccc2c(c1)O/C(=C\c1cccs1)C2=O`, the AC50 was 26.2 µM.

`NC(=O)c1cc([N+](=O)[O-])ccc1NCc1cccc([N+](=O)[O-])c1`: the AC50 was 3.49 µM.

Turning to `Cc1ccc(-c2nnc3n2N=C(c2ccccc2Br)CS3)cc1`, the AC50 is > 30 µM (inactive).

`Cc1c(O)ccc2c3c(c(=O)oc12)CCC(C)C3` (centres undefined): the AC50 was > 30 µM (inactive).

`COC(=O)c1cc2cc(Cl)ccc2nc1SC`: the AC50 is > 30 µM (inactive).

As to `Cc1nc(SCC(=O)Nc2nc3ccccc3s2)n[nH]1`, the AC50 was > 30 µM (inactive).

Take `COc1ccc(-c2csc3nc(C)nc(N4CCC(C)CC4)c23)cc1OC`: the AC50 is > 30 µM (inactive).

With `O=C(NCC1CCCO1)c1ccc(NC(=O)c2cccc([N+](=O)[O-])c2)cc1` (centres undefined), the AC50 is > 30 µM (inactive).

On to `O=C(NCCCN1CCN(Cc2ccccc2Cl)CC1)Nc1ccccc1`, for which the AC50 was > 30 µM (inactive).

On to `CCOc1ccc(-c2c(C(=O)N/N=C(\C)c3ccncc3)nnn2-c2nonc2N)cc1`, for which the AC50 was 20.9 µM.

Regarding `Cc1nc(NC(=O)c2ccc(Br)o2)sc1C`, the AC50 is > 30 µM (inactive).

On to `CN(Cc1c(C(=O)N/N=C/c2ccccc2)nnn1-c1nonc1N)C1CCCCC1`, for which the AC50 was > 30 µM (inactive).

Turning to `COc1ccc(OCc2nc(N)nc(Nc3ccccc3)n2)cc1`, the AC50 was > 30 µM (inactive).

Turning to `Clc1ccccc1C1=Nn2c(nnc2-c2ccco2)SC1`, the half-maximal activity concentration (AC50) is 30.4 µM.

As for `COc1ccc(NC2CC(=O)NC2=O)cc1` (centres undefined), the AC50 was > 30 µM (inactive).

As to `CCN(CC)C(=O)c1oc2ccc(S(=O)(=O)N3CCCCCC3)cc2c1C`, the AC50 was > 30 µM (inactive).

On to `Cc1cccc(C)c1OCC(O)CNC(C)C` (centres undefined), for which the AC50 is > 30 µM (inactive).

For `COc1ccccc1/C=N/NC(=O)c1nnn(-c2nonc2N)c1-c1cccs1`, the half-maximal activity concentration (AC50) was 0.779 µM.

Consider `COCCCNc1ncnc2nc[nH]c12`, for which the AC50 was > 30 µM (inactive).

Turning to `COc1ccccc1NC(=O)CSc1ccc2nnc(-c3ccc(C)cc3)n2n1`, the AC50 is 19.2 µM.

For the compound `COc1cccc(/C=c2\s/c(=C\C(=O)C(C)(C)C)[nH]c2=O)c1`, the AC50 is > 30 µM (inactive).

Take `Cc1ccccc1CSc1nnc(-c2ccncc2)n1C`: the AC50 was > 30 µM (inactive).
